Assay results as given in paper PMC6408865 (Pharmacology Research & Perspectives, 2019).
Where two headings read alike, the source gives them in different places.

Legend:
[1] = mouse plasma; cited from earlier work
[2] = system: plasma TAG; experiment: PK/PD model of plasma TAG after Oral Lipid Tolerance Test (standardized mixed meal)
[3] = system: DGAT1 (in liver microsomes); parameters: method as in Barlind_2012; settings: rat liver microsomes; ref Barlind_2012; read-out: In vitro potency (IC50) against DGAT1; cited from earlier work
[4] = PK model of AZD7687 plasma concentrations during mouse OLTT (1-compartment); type: in vivo
Description: Oral Lipid Tolerance Test in the mouse was carried out in a similar way to rats.
(§1) Full description of all the PK models is provided in supplementary section S1.
(§2) As PK data was only collected for 4h post dose, the ability to fit complex PK models was limited. As with the rat, the aim of the PK fitting was to describe the kinetics of the compound during the OLTT instead of a full characterization of the PK properties of the compound. […] Inter-individual variability was estimated on CL and V parameters according to a log-normal distribution of individual parameters. Correlation between Cl and V parameters was allowed. […] Residual error was characterized with a proportional error model.

[5] = rat plasma; cited from earlier work
[6] = PK model of AZD7687 plasma concentrations during rat OLTT (1-compartment); type: in vivo
Description: (§3) Full description of the OLTT in the rat has been published previously.17 In brief, 53 male Han‐Wistar rats (∼230 g), previously maintained on a chow diet, were fasted for 14 hours. […] Six remaining animals were kept untreated and served as naive controls.
as §1
as §2, with “11h” for “4h”, “The” for “As with the rat, the”, “parameters.” for “parameters. Correlation between Cl and V parameters was allowed.”, “proportional plus additive” for “proportional”

[7] = system: plasma TAG; settings: human SAD OLTT study, iAUC analysis of plasma TAG vs plasma concentration at start of meal test; read-out: in vivo IC50, previously published; cited from earlier work
[8] = system: DGAT1 (in liver microsomes); parameters: method as in Barlind_2012; settings: human liver microsomes; ref Barlind_2012; read-out: In vitro potency (IC50) against DGAT1; cited from earlier work
[9] = parameters: method as in PMID 23116186; settings: human plasma; cited from earlier work
[10] = system: plasma TAG; experiment: PK/PD model of plasma TAG after Oral Lipid Tolerance Test (corn oil); settings: rat OLTT, free plasma concentration, read-out: IC50 (free in vivo IC50, inhibition of exogenous TAG contribution to plasma)
Description: as §3
Biological plausibility combined with stable parameter estimation was used in the evaluation of different potential PK/PD models to help select the optimal one. The key components of the final PK/PD TAG model are described in Figure 1. The introduction of exogenous TAG into the system is represented by a first order process from the lipid depot compartment (assumed to be the gut) to the central compartment (plasma). A lag time to accommodate the time delay from ingestion of the fatty meal to the resulting increase in plasma TAG was needed. In addition, there is an endogenous production and removal of TAG from plasma described with a turnover model controlled by the turnover rate (kin) (production) and the fractional turnover rate (kout) (loss). Turnover model was reparameterized using the relationship of kin to baseline plasma TAG (R0) (R0 = kin/kout) to increase numerical stability.
KaTAG is the absorption rate of exogenous TAG into plasma, VTAG is the volume of distribution of exogenous TAG, and TlagTAG is the time delay for the absorption of TAG from the SMM. […]

[11] = system: plasma TAG; parameters: method as in PMID 23116186; settings: cited from earlier work
[12] = Population PK model of AZD7687 plasma concentrations in SAD and MAD studies (2-compartment, first order absorption); type: in vivo; settings: human
Description: Full details of the study protocols have previously been reported by Denison et al14 for Single Ascending Dose study (SAD) and Denison et al16 for the Multiple Ascending Dose Study (MAD). In brief, in the SAD, 80 healthy male subjects were enrolled.
as §1
Models were implemented using nonlinear mixed effects modeling in Phoenix NLME, version 1.3 (Certara). The analysis was conducted using the first order conditional estimation (FOCE‐ELS) during the sequential and simultaneous analysis (the expectation maximization method (QRPEM) was used for the simultaneous fitting of the human data due to speed and ability to converge).
Inter-individual variability was estimated on CL, V1, V2 and ka parameters according to a log-normal distribution of individual parameters. […] Residual error was characterized with a proportional plus additive error model.

[13] = system: HuTu 80 (Human gastrointestinal tumor cell line); parameters: method as in Barlind_2012; settings: HuTu 80 cells; ref Barlind_2012; read-out: In vitro potency (IC50) in HuTu 80; cited from earlier work
[14] = system: DGAT1 (in liver microsomes); parameters: method as in Barlind_2012; settings: mouse liver microsomes; ref Barlind_2012; read-out: In vitro potency (IC50) against DGAT1; cited from earlier work
[15] = system: plasma TAG; experiment: PK/PD model of plasma TAG after Oral Lipid Tolerance Test (Intralipos 20%)
[16] = human; cited from earlier work
[17] = using free concentrations in plasma

In the case of `Cc1nc(C)c(-c2ccc(C3CCC(CC(=O)O)CC3)cc2)nc1C(N)=O` (stereo not drawn) [AZD7687], the “free fraction (fu)” value [1] is given as 0.1, the IC50 ([2]; Homo sapiens, po, read-out: IC50 (free in vivo IC50, inhibition of exogenous TAG contribution to plasma), human OLTT, free plasma concentration) is given as 8 nM and the IC50 ([2]; read-out: IC50 (free in vivo IC50, inhibition of exogenous TAG contribution to plasma), human OLTT, free plasma concentration) is given as 7.8 nM. For the same compound, the IC50 [3] was 150 nM, the V ([4]; Table 1, free concentrations) was 13.14 L and the CL/F ([4]; male, ICR, oral, supplement, free concentrations in plasma, read-out: tvCl (apparent clearance) (converted)) was 36.2 mL/min/kg. The Vd ([4]; male, ICR, oral, supplement, free concentrations in plasma, read-out: tvV (apparent volume of distribution)) was 13.1 L/kg, the clearance ([4]; male, ICR, plasma, oral, Table 1, free concentrations) was 36.2 mL/min and the “free fraction (fu)” value [5] was 0.03. The “IIV V” value ([6]; in vivo) was 11.7%, the CL/F ([6]; male, Han-Wistar, oral, supplement, free concentrations in plasma, read-out: tvCl (apparent clearance) (converted)) was 12.2 mL/min/kg and the clearance ([6]; male, Han-Wistar, plasma, oral, Table 1, free concentrations) was 12.2 mL/min. The IC50 [7] was 20 nM, the IC50 [8] was 70 nM and the “free fraction (fu)” value [9] was 0.055. For the same compound, the IC50 [10] was 162 nM, the IC50 ([11]; rat OLTT study, single time point data for plasma TAG and PK, read-out: in vivo IC50, previously published) was 42 nM and the “effect on TAG excursion after OLTT” value ([11]; rats, exposure dependant) was “reduces the TAG excursion”. For the same compound, the “Cl (tvCL, apparent clearance)” value [12, 17] was 28.1 L/h, the “V2 (tvV2, peripheral volume of distribution)” value [12, 17] was 136.8 L and the Tmax ([12]; male, plasma, post dose, oral, read-out: T max in plasma) was ≤ 1 h. The Vd ([12]; male, oral, using free concentrations in plasma, read-out: V (tvV1, central volume of distribution)) was 320 L, the IC50 [13] was 10 nM and the IC50 [14] was 100 nM. For the same compound, the IC50 ([15]; Mus musculus, po, read-out: IC50 (free in vivo IC50, inhibition of exogenous TAG contribution to plasma), mouse OLTT, free plasma concentration) was 81 nM, the IC50 ([15]; read-out: IC50 (free in vivo IC50, inhibition of exogenous TAG contribution to plasma), mouse OLTT, free plasma concentration) was 80 nM and the “side effects leading to stop of clinical development” value [16] was “intolerable side effects”.
